The source of these data is patent US10913727B2, “Modulators of the integrated stress pathway” (Calico Life Sciences LLC, priority 2016, dated 2021).

Some results are limits rather than exact numbers.

This test relates to HEK293T cells carrying the ATF4 luciferase reporter. Briefly: ATF4-Luc assay, in vitro model of Vanishing Cell White Matter Disease (VWMD). It is filed as cell-based. To be noted: Homo sapiens, HEK-293T, 1 μg/mL tunicamycin, 7 hours, One Glo luminescence. On the procedure:
In order to test exemplary compounds of the invention in a cellular context, a stable VWMD cell line was first constructed. The ATF4 reporter was prepared by fusing the human full-length ATF4 5′-UTR (NCBI Accession No. BC022088.2) in front of the firefly luciferase (FLuc) coding sequence lacking the initiator methionine as described in Sidrauski et al (eLife 2013). The construct was used to produce recombinant retroviruses using standard methods and the resulting viral supernatant was used to transduce HEK293T cells, which were then subsequently selected with puromycin to generate a stable cell line.
HEK293T cells carrying the ATF4 luciferase reporter were plated on polylysine coated 384-well plates (Greiner Bio-one) at 30,000 cells per well. Cells were treated the next day with 1 μg/mL tunicamycin and 200 nM of a compound of Formula (I) for 7 hours. Luminescence was measured using One Glo (Promega) as specified by the manufacturer. Cells were maintained in DMEM with L-glutamine supplemented with 10% heat-inactivated FBS (Gibco) and Antibiotic-Antimycotic solution (Gibco).
Table 2 below summarizes the EC50 data obtained using the ATF4-Luc assay for exemplary compounds of the invention.
For the molecule `O=C(COc1ccc(Cl)c(F)c1)NC12CCC(NC(=O)c3cnc(C(F)F)cn3)(CC1)[C@H](O)C2` (single isomer, unassigned) [Compound 235], the EC50 lay within 50 to 250 nM. As for `O=C(COc1ccc(Cl)c(F)c1)NC12CCC(NC(=O)c3cnc(C(F)F)cn3)(CC1)[C@@H](O)C2` (single isomer, unassigned) [Compound 236], the figure is less than 50 nM. To `Cc1cc(C(=O)NC23CCC(NC(=O)COc4ccc(Cl)c(F)c4)(CC2)[C@H](O)C3)on1` (single isomer, unassigned) [Compound 357] belongs 250 to 1000 nM; to `Cc1cc(C(=O)NC23CCC(NC(=O)COc4ccc(Cl)c(F)c4)(CC2)[C@@H](O)C3)on1` (single isomer, unassigned) [Compound 358], less than 50 nM. As for `Cc1cc(C(=O)NC23CCC(NC(=O)COc4ccc(Cl)c(F)c4)(CC2)[C@@H](O)C3)n(C)n1` (single isomer, unassigned) [Compound 485], the EC50 is less than 50 nM.

Turning to `Cc1cc(C(=O)NC23CCC(NC(=O)COc4ccc(Cl)c(F)c4)(CC2)[C@H](O)C3)n(C)n1` (single isomer, unassigned) [Compound 486], the EC50 fell in the range of 50 to 250 nM.

Take `O=C(COc1ccc(Cl)c(F)c1)NC12CCC(Nc3cnc(C(F)(F)F)cn3)(CC1)CC2` [Compound 100, 2-(4-chloro-3-fluorophenoxy)-N-(4-{[5-(trifluoromethyl)pyrazin-2-yl]amino}bicyclo[2.2.2]octan-1-yl)acetamide]: the EC50 fell in the range of 250 to 1000 nM. Regarding `O=C(COc1ccc(Cl)c(Cl)c1)NC12CC(Nc3cnc(C(F)(F)F)cn3)(C1)C2` [Compound 101, 2-(3,4-dichlorophenoxy)-N-(3-{[5-(trifluoromethyl)pyrazin-2-yl]amino}bicyclo-[1.1.1]pentan-1-yl)acetamide], the EC50 was more than 2000 nM.

As for `O=C(COc1ccc(Cl)c(F)c1)NC12CC(Nc3cnc(C(F)(F)F)cn3)(C1)C2` [Compound 102, 2-(4-chloro-3-fluorophenoxy)-N-(3-{[5-(trifluoromethyl)pyrazin-2-yl]amino}bicyclo[1.1.1]pentan-1-yl)acetamide], the EC50 fell in the range of 1000 to 2000 nM. As for `O=C(COc1ccc(Cl)c(F)c1)NC12CC(Nc3ccc(C(F)(F)F)cn3)(C1)C2` [Compound 103, 2-(4-chloro-3-fluorophenoxy)-N-(3-{[5-(trifluoromethyl)pyridin-2-yl]amino}bicyclo[1.1.1]pentan-1-yl)acetamide], the figure is 1000 to 2000 nM. To `O=C(COc1ccc(Cl)c(F)c1)NC12CC(Nc3ccc(C(F)(F)F)nc3)(C1)C2` [Compound 104, 2-(4-chloro-3-fluorophenoxy)-N-(3-{[6-(trifluoromethyl)pyridin-3-yl]amino}bicyclo[1.1.1]pentan-1-yl)acetamide] belongs 250 to 1000 nM; to `O=C(COc1ccc(Cl)c(F)c1)NC12CC(NC(=O)c3cnc(-c4ccc(Cl)c(F)c4)o3)(C1)C2` [Compound 105, N-{3-[2-(4-chloro-3-fluorophenoxy)acetamido]bicyclo[1.1.1]pentan-1-yl}-2-(4-chloro-3-fluorophenyl)-1,3-oxazole-5-carboxamide], less than 50 nM; to `O=C(COc1ccc(Cl)c(F)c1)NC12CC(NC(=O)c3ccc(-c4ccc(Cl)c(F)c4)o3)(C1)C2` [Compound 106, N-{3-[2-(4-chloro-3-fluorophenoxy)acetamido]bicyclo[1.1.1]pentan-1-yl}-5-(4-chloro-3-fluorophenyl)furan-2-carboxamide], less than 50 nM. For `O=C(COc1ccc(Cl)c(F)c1)NC12CC(NC(=O)c3cnc(-c4ccc(C(F)(F)F)nc4)o3)(C1)C2` [Compound 107, N-{3-[2-(4-chloro-3-fluorophenoxy)acetamido]bicyclo[1.1.1]pentan-1-yl}-2-[6-(trifluoromethyl)pyridin-3-yl]-1,3-oxazole-5-carboxamide], the EC50 was less than 50 nM. To `O=C(COc1ccc(Cl)c(F)c1)NC12CC(NC(=O)c3coc(-c4ccc(Cl)c(F)c4)n3)(C1)C2` [Compound 108, N-{3-[2-(4-chloro-3-fluorophenoxy)acetamido]bicyclo[1.1.1]pentan-1-yl}-2-(4-chloro-3-fluorophenyl)-1,3-oxazole-4-carboxamide] belongs less than 50 nM. To `Cc1ncc(-c2ncc(C(=O)NC34CC(NC(=O)COc5ccc(Cl)c(F)c5)(C3)C4)o2)cn1` [Compound 109, N-{3-[2-(4-chloro-3-fluorophenoxy)acetamido]bicyclo[1.1.1]pentan-1-yl}-2-(2-methylpyrimidin-5-yl)-1,3-oxazole-5-carboxamide] belongs 250 to 1000 nM; to `O=C(COc1ccc(Cl)c(Cl)c1)NC12CCC(NC(=O)c3cnc(-c4ccc(Cl)c(F)c4)o3)(C1)C2` [Compound 110, 2-(4-chloro-3-fluorophenyl)-N-{4-[2-(3,4-dichlorophenoxy)acetamido]bicyclo-[2.1.1]hexan-1-yl}-1,3-oxazole-5-carboxamide], 50 to 250 nM; to `Cc1cc(C(=O)NC23CCC(NC(=O)COc4ccc(Cl)c(Cl)c4)(C2)C3)nn1-c1ccc(Cl)cc1` [Compound 111, 1-(4-chlorophenyl)-N-{4-[2-(3,4-dichlorophenoxy)acetamido]bicyclo[2.1.1]-hexan-1-yl}5-methyl-1H-pyrazole-3-carboxamide], more than 2000 nM. To `Cc1cc(C(=O)NC23CC(NC(=O)COc4ccc(Cl)c(F)c4)(C2)C3)nn1-c1ccc(Cl)cc1` [Compound 112, N-{3-[2-(4-chloro-3-fluorophenoxy)acetamido]bicyclo[1.1.1]pentan-1-yl}-1-(4-chlorophenyl)-5-methyl-1H-pyrazole-3-carboxamide] belongs 250 to 1000 nM; to `O=C(COc1ccc(Cl)c(F)c1)NC12CC(NC(=O)c3cc(-c4ccc(Cl)cc4)on3)(C1)C2` [Compound 113, N-{3-[2-(4-chloro-3-fluorophenoxy)acetamido]bicyclo[1.1.1]pentan-1-yl}-5-(4-chlorophenyl)-1,2-oxazole-3-carboxamide], 50 to 250 nM. Take `Cc1cnc(C(=O)NC23CC(NC(=O)COc4ccc(Cl)c(F)c4)(C2)C3)cn1` [Compound 114, N-{3-[2-(4-chloro-3-fluorophenoxy)acetamido]bicyclo[1.1.1]pentan-1-yl}-5-methylpyrazine-2-carboxamide]: the EC50 was 50 to 250 nM.

With `O=C(COc1ccc(Cl)c(F)c1)NC12CC(NC(=O)c3cnc(C(F)(F)F)cn3)(C1)C2` [Compound 115, N-{3-[2-(4-chloro-3-fluorophenoxy)acetamido]bicyclo[1.1.1]pentan-1-yl}-5-(trifluoromethyl)pyrazine-2-carboxamide], the concentration giving a half-maximal response (EC50) lay within 1000 to 2000 nM. As for `COc1cc(OC)nc(C(=O)NC23CC(NC(=O)COc4ccc(Cl)c(F)c4)(C2)C3)n1` [Compound 116, N-{3-[2-(4-chloro-3-fluorophenoxy)acetamido]bicyclo[1.1.1]pentan-1-yl}-4,6-dimethoxypyrimidine-2-carboxamide], the figure is more than 2000 nM.

With `O=C(COc1ccc(Cl)c(F)c1)NC12CC(NC(=O)c3ccc(OC(F)(F)F)cn3)(C1)C2` [Compound 117, N-{3-[2-(4-chloro-3-fluorophenoxy)acetamido]bicyclo[1.1.1]pentan-1-yl}-5-(trifluoromethoxy)pyridine-2-carboxamide], the EC50 is less than 50 nM. To `COc1ncnc(OC)c1C(=O)NC12CC(NC(=O)COc3ccc(Cl)c(F)c3)(C1)C2` [Compound 118, N-{3-[2-(4-chloro-3-fluorophenoxy)acetamido]bicyclo[1.1.1]pentan-1-yl}-4,6-dimethoxypyrimidine-5-carboxamide] belongs more than 2000 nM. With `O=C(COc1ccc(Cl)c(F)c1)NC12CC(NC(=O)c3cc4ccccn4n3)(C1)C2` [Compound 119, N-{3-[2-(4-chloro-3-fluorophenoxy)acetamido]bicyclo[1.1.1]pentan-1-yl}pyrazolo[1,5-a]pyridine-2-carboxamide], the EC50 lay within 250 to 1000 nM. As for `O=C(COc1ccc(Cl)c(F)c1)NC12CC(NC(=O)c3ccc(C(F)(F)F)cn3)(C1)C2` [Compound 120, N-{3-[2-(4-chloro-3-fluorophenoxy)acetamido]bicyclo[1.1.1]pentan-1-yl}-5-(trifluoromethyl)pyridine-2-carboxamide], the figure is 50 to 250 nM. To `Cc1ncc(C(=O)NC23CC(NC(=O)COc4ccc(Cl)c(F)c4)(C2)C3)cn1` [Compound 121, N-{3-[2-(4-chloro-3-fluorophenoxy)acetamido]bicyclo[1.1.1]pentan-1-yl}-2-methylpyrimidine-5-carboxamide] belongs 1000 to 2000 nM; to `O=C(COc1ccc(Cl)c(F)c1)NC12CC(NC(=O)c3cc4ncccn4n3)(C1)C2` [Compound 122, N-{3-[2-(4-chloro-3-fluorophenoxy)acetamido]bicyclo[1.1.1]pentan-1-yl}pyrazolo[1,5-a]pyrimidine-2-carboxamide], 1000 to 2000 nM; to `O=C(COc1ccc(Cl)c(F)c1)NC12CC(NC(=O)c3ccc(N4CCCC4)cn3)(C1)C2` [Compound 123, N-{3-[2-(4-chloro-3-fluorophenoxy)acetamido]bicyclo[1.1.1]pentan-1-yl}-5-(pyrrolidin-1-yl)pyridine-2-carboxamide], 250 to 1000 nM. To `COc1cnc(C(=O)NC23CC(NC(=O)COc4ccc(Cl)c(F)c4)(C2)C3)cn1` [Compound 124, N-{3-[2-(4-chloro-3-fluorophenoxy)acetamido]bicyclo[1.1.1]pentan-1-yl}-5-methoxypyrazine-2-carboxamide] belongs 1000 to 2000 nM.
